Assay [1] has as its target T1, arginase II (ARG II) (Homo sapiens, UniProt P78540).
T1 sequence (P78540 23-354): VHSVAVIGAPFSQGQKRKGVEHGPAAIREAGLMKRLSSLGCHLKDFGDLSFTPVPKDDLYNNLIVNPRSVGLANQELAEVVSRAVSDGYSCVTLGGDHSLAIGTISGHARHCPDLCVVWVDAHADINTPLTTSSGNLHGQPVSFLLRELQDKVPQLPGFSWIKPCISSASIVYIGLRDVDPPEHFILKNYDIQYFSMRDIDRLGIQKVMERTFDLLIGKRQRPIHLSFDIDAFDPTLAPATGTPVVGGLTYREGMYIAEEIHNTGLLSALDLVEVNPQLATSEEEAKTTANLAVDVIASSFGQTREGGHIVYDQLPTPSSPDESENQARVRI
The assay can be described thus: Inhibition of arginase II, spectrophotometric urea assay at 530 nm. The settings on record: Formula I compounds, Table 2; read-out: Potency (ARG II). Format: biochemical. Put shortly: (§1)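 IC50 was derived by regression of OD530 normalized to uninhibited-enzyme controls against log concentration. Urea from 60-min, 37 °C turnover of L-arginine with manganese sulfate was detected after acid o-phthaldialdehyde/primaquine quench and 10 min colour development. Arginase I and II came from 100 ng/ml stocks in pH 7.4 phosphate with ovalbumin.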

The target of assay [2] is T2, human arginase I (ARG I) (Homo sapiens, UniProt P05089).
T2 sequence (P05089 1-322): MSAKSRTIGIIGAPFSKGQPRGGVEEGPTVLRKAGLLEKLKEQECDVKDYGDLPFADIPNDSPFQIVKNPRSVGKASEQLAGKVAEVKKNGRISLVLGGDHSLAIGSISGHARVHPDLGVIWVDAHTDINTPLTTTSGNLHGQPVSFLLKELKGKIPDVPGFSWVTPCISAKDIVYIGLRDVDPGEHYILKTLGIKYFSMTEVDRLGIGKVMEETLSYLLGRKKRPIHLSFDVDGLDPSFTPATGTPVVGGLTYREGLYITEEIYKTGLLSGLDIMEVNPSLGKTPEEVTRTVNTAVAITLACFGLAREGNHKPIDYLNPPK
Description: Inhibition of arginase I, spectrophotometric urea assay at 530 nm. The settings on record: Formula I compounds, Table 2; read-out: Potency (ARG I). The class given is biochemical. The gist of the method: as §1

Where a name gives a salt, the structure may show the parent alone.

Take `NC(CCCCB(O)O)(CCCOc1ccc(Cl)cc1)C(=O)O` (centres unmarked) [compound 96, 2-Amino-6-borono-2-[3-(4-chlorophenoxy)-propyl]-hexanoic acid hydrochloride]: the IC50 in assay [1] and in assay [2] was 1000 to 2000 nM in each case.

For the molecule `CC(N)(CCCCB(O)O)C(=O)O` (centres unmarked) [compound 97, 2-Amino-6-borono-2-methylhexanoic acid hydrochloride], the IC50 in assay [1] was greater than 5000 nM; in assay [2], 2000 to 5000 nM.

Turning to `NC(CCCCB(O)O)(Cc1cnc[nH]1)C(=O)O` (centres unmarked) [compound 102, 2-((1H-imidazol-5-yl)methyl)-2-amino-6-boronohexanoic acid dihydrochloride], the IC50 in assay [1] and in assay [2] was 2000 to 5000 nM throughout.

Consider `NC(CCCCB(O)O)(CC(=O)O)C(=O)O` (centres unmarked) [compound 106, 2-amino-2-(4-boronobutyl)succinic acid hydrochloride], for which the IC50 in assay [1] and in assay [2] was greater than 5000 nM throughout.

Turning to `CC(C)n1cncc1CC(N)(CCCCB(O)O)C(=O)O` (centres unmarked) [compound 107, 2-amino-6-borono-2-((1-isopropyl-1H-imidazol-5-yl)methyl)hexanoic acid dihydrochloride], the IC50 in assay [1] and in assay [2] was greater than 5000 nM each time.

With `CCC(O)C(N)(CCCCB(O)O)C(=O)O` (centres unmarked) [compound 108, 2-amino-6-borono-2-(1-hydroxypropyl)hexanoic acid hydrochloride], the IC50 was 2000 to 5000 nM in assay [1] and 1000 to 2000 nM in assay [2].

`NC(CCCCB(O)O)(C(=O)O)C(O)C1CCNCC1` (centres unmarked) [compound 109, 2-amino-6-borono-2-(hydroxy(piperidin-4-yl)methyl)hexanoic acid dihydrochloride]: the IC50 in assay [1] was greater than 5000 nM; in assay [2], 2000 to 5000 nM.

In the case of `NC(CCCCB(O)O)(C(=O)O)C(O)C1CCCNC1` (centres unmarked) [compound 110, 2-amino-6-borono-2-(hydroxy(piperidin-3-yl)methyl)hexanoic acid dihydrochloride], the IC50 in assay [1] was in the range of 2000 to 5000 nM; in assay [2], 1000 to 2000 nM.

For `NC(CCCCB(O)O)(C(=O)O)C(O)CCC(F)(F)F` (centres unmarked) [compound 111, 2-amino-2-(4-boronobutyl)-6,6,6-trifluoro-3-hydroxyhexanoic acid hydrochloride], the IC50 in assay [1] and in assay [2] was 2000 to 5000 nM each time.

Regarding `NC(CCCCB(O)O)(C(=O)O)C(O)c1cccnc1` (centres unmarked) [compound 112, 2-amino-6-borono-2-(hydroxy(pyridin-3-yl)methyl)hexanoic acid dihydrochloride], the IC50 in assay [1] and in assay [2] was 2000 to 5000 nM throughout.

Turning to `NC(CCCCB(O)O)(C(=O)O)C(O)C1CNC1` (centres unmarked) [compound 113, 2-amino-2-(azetidin-3-yl(hydroxy)methyl)-6-boronohexanoic acid dihydrochloride], the IC50 in assay [1] was 251 to 1000 nM; in assay [2] it was 0.1 to 250 nM.

Turning to `NC(CCCCB(O)O)C(=O)c1ccccc1` (centres unmarked) [compound 114, 5-amino-6-oxo-6-phenylhexylboronic acid hydrochloride], the IC50 in assay [1] and in assay [2] was greater than 5000 nM each time.

On to `NC(CCCCB(O)O)(CCc1ccccn1)C(=O)O` (centres unmarked) [compound 116, 2-amino-6-borono-2-(2-(pyridin-2-yl)ethyl)hexanoic acid dihydrochloride], for which the IC50 in assay [1] and in assay [2] was 2000 to 5000 nM in each case.

As for `NC(CCCCB(O)O)(CC1CN(Cc2ccc(Cl)c(Cl)c2)C1)C(=O)O` (centres unmarked) [compound 117, 2-amino-6-borono-2-((1-(3,4-dichlorobenzyl)azetidin-3-yl)methyl)hexanoic acid dihydrochloride], the IC50 in assay [1] is 2000 to 5000 nM; in assay [2], 251 to 1000 nM.

Regarding `NC(CCCCB(O)O)(CC1CN(CCc2ccc(Cl)cc2Cl)C1)C(=O)O` (centres unmarked) [compound 118, 2-amino-6-borono-2-((1-(2,4-dichlorophenethyl)azetidin-3-yl)methyl)hexanoic acid dihydrochloride], the IC50 in assay [1] and in assay [2] was 251 to 1000 nM in each case.

For `NC(CCCCB(O)O)(CCNC(=S)Nc1ccc(Cl)c(Cl)c1)C(=O)O` (centres unmarked) [compound 119, 2-amino-6-borono-2-(2-(3-(3,4-dichlorophenyl)thioureido)ethyl)hexanoic acid hydrochloride], the IC50 was in the range of 1000 to 2000 nM in assay [1] and 251 to 1000 nM in assay [2].

With `CC(C)C(=O)NCCC(N)(CCCCB(O)O)C(=O)O` (centres unmarked) [compound 120, 2-amino-6-borono-2-(2-isobutyramidoethyl)hexanoic acid hydrochloride], the IC50 in assay [1] was in the range of 2000 to 5000 nM; in assay [2] it was 1000 to 2000 nM.

On to `NC(CCCCB(O)O)(CCN1CCC(c2ccc(Cl)cc2)CC1)C(=O)O` (centres unmarked) [compound 121, 2-amino-6-borono-2-(2-(4-(4-chlorophenyl)piperidin-1-yl)ethyl)hexanoic acid dihydrochloride], for which the IC50 in assay [1] and in assay [2] was 251 to 1000 nM in each case.

Consider `NC(CCCCB(O)O)(CCN1CCC(Cc2ccc(Cl)cc2)CC1)C(=O)O` (centres unmarked) [compound 122, 2-amino-6-borono-2-(2-(4-(4-chlorobenzyl)piperidin-1-yl)ethyl)hexanoic acid dihydrochloride], for which the IC50 in assay [1] and in assay [2] was 251 to 1000 nM throughout.

In the case of `NC(CCCCB(O)O)(CC1CNC1)C(=O)O` (centres unmarked) [compound 123, 2-amino-2-(azetidin-3-ylmethyl)-6-boronohexanoic acid dihydrochloride], the IC50 is greater than 5000 nM in assay [1] and 2000 to 5000 nM in assay [2].

As to `CC(CC(N)(CCCCB(O)O)C(=O)O)N1CCC(Cc2ccccc2)CC1` (centres unmarked) [compound 124, 2-amino-2-(2-(4-benzylpiperidin-1-yl)propyl)-6-boronohexanoic acid dihydrochloride], the IC50 in assay [1] is 2000 to 5000 nM; in assay [2] it was 251 to 1000 nM.

As to `NC(CCCCB(O)O)(CCN1CCC(Cc2ccccc2)CC1)C(=O)O` (centres unmarked) [compound 125, 2-amino-2-(2-(4-benzylpiperidin-1-yl)ethyl)-6-boronohexanoic acid dihydrochloride], the IC50 in assay [1] and in assay [2] was 251 to 1000 nM in each case.

Take `NC(CCCCB(O)O)(CCN1CCC(Cc2ccc(C(F)(F)F)cc2)CC1)C(=O)O` (centres unmarked) [compound 126, 2-amino-6-borono-2-(2-(4-(4-(trifluoromethyl)benzyl)piperidine-1-yl)ethyl)hexanoic acid dihydrochloride]: the IC50 in assay [1] and in assay [2] was 251 to 1000 nM in each case.

In the case of `NC(CCCCB(O)O)(CCN1CCC(Cc2ccc(F)cc2)CC1)C(=O)O` (centres unmarked) [compound 127, 2-amino-6-borono-2-(2-(4-(4-fluorobenzyl)piperidin-1-yl)ethyl)hexanoic acid dihydrochloride], the IC50 in assay [1] and in assay [2] was 251 to 1000 nM in each case.

On to `CC1(C)CCN(CCC(N)(CCCCB(O)O)C(=O)O)CC1` (centres unmarked) [compound 128, 2-amino-6-borono-2-(2-(4,4-dimethylpiperidin-1-yl)ethyl)hexanoic acid dihydrochloride], for which the IC50 in assay [1] is 1000 to 2000 nM; in assay [2] it was 251 to 1000 nM.

For the molecule `CCCC1CCN(CCC(N)(CCCCB(O)O)C(=O)O)CC1` (centres unmarked) [compound 129, 2-amino-6-borono-2-(2-(4-propylpiperidin-1-yl)ethyl)hexanoic acid dihydrochloride], the IC50 in assay [1] lay in the range of 1000 to 2000 nM; in assay [2], 251 to 1000 nM.

As to `CCN1Cc2ccccc2CC1CCC(N)(CCCCB(O)O)C(=O)O` (centres unmarked) [compound 130, 2-amino-6-borono-2-(2-(2-ethyl-1,2,3,4-tetrahydroisoquinolin-3-yl)ethyl)hexanoic acid dihydrochloride], the IC50 was in the range of 251 to 1000 nM in assay [1] and 0.1 to 250 nM in assay [2].

In the case of `NC(CCCCB(O)O)(CCC1Cc2ccccc2CN1Cc1ccc(Cl)cc1)C(=O)O` (centres unmarked) [compound 132, 2-amino-6-borono-2-(2-(2-(4-chlorobenzyl)-1,2,3,4-tetrahydroisoquinolin-3-yl)ethyl)hexanoic acid dihydrochloride], the IC50 was 251 to 1000 nM in assay [1] and 0.1 to 250 nM in assay [2].

Regarding `CC(C)CCN1Cc2ccccc2CC1CCC(N)(CCCCB(O)O)C(=O)O` (centres unmarked) [compound 133, 2-amino-6-borono-2-(2-(2-isopentyl-1,2,3,4-tetrahydroisoquinolin-3-yl)ethyl)hexanoic acid dihydrochloride], the IC50 in assay [1] and in assay [2] was 0.1 to 250 nM in each case.

Regarding `NC(CCCCB(O)O)(CCC1Cc2ccccc2CN1CC1CCCCC1)C(=O)O` (centres unmarked) [compound 134, 2-amino-6-borono-2-(2-(2-(cyclohexylmethyl)-1,2,3,4-tetrahydroisoquinolin-3-yl)ethyl)hexanoic acid dihydrochloride], the IC50 in assay [1] fell in the range of 251 to 1000 nM; in assay [2], 0.1 to 250 nM.

With `CC(C)CN1Cc2ccccc2CC1CCC(N)(CCCCB(O)O)C(=O)O` (centres unmarked) [compound 135, 2-amino-6-borono-2-(2-(2-isobutyl-1,2,3,4-tetrahydroisoquinolin-3-yl)ethyl)hexanoic acid dihydrochloride], the IC50 was 251 to 1000 nM in assay [1] and 0.1 to 250 nM in assay [2].
